The numbers were not newly measured in patent US11160278B2, “Use of active substances for controlling virus infection in plants” (Bayer CropScience Aktiengesellschaft, priority 2016, dated 2021), which cites them from elsewhere.

The test system of data set [1] is Pseudomonas syringae pv tabaci.
Data set [2] deals with tobacco mosaic virus (TMV). The note with it: also NahG transgenic tobacco.

Molecules are shown by their SMILES.

For `COC(=O)N(OC)c1ccccc1COc1ccn(-c2ccc(Cl)cc2)n1` [Pyraclostrobin], the “resistance of tobacco against infection by Pseudomonas syringae pv tabaci” value in data set [1] is “enhance the resistance”. Moreover, the “resistance of tobacco against infection by TMV” value in data set [2] is listed as “enhance the resistance”.
